Source: ChEMBL document CHEMBL1201862, “PubChem BioAssay data set” (2004)
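Cultured in 96-well plates, cells were exposed to test compound for 48 hours across five concentrations. GI50 is the concentration that inhibits growth by half.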 Activity calls are given as the source filed them. Rule as the data show it: active = GI50 up to about 1.1 µM and inactive = higher.

Legend:
Assay in all cases: growth of human tumour cells (NCI), 48 h
OVCAR-4 = tested on: OVCAR-4
DMS-114 = tested on: DMS-114
OVCAR-5 = tested on: OVCAR-5
HCC 2998 = tested on: HCC 2998
PC-3 = tested on: PC-3
DLD-1 = tested on: DLD-1
SK-MEL-5 = tested on: SK-MEL-5
HT-29 = tested on: HT-29
NCI-H23 = tested on: NCI-H23
M14 = tested on: M14
TK-10 = tested on: TK-10
SR = tested on: SR
OVCAR-8 = tested on: OVCAR-8
SK-MEL-2 = tested on: SK-MEL-2
UACC-62 = tested on: UACC-62
LXFL 529 = tested on: LXFL 529
SF-268 = tested on: SF-268
MDA-MB-231 = tested on: MDA-MB-231
HL-60 = tested on: HL-60
XF498 = tested on: XF498
NCI-H522 = tested on: NCI-H522
SF-295 = tested on: SF-295
SW-620 = tested on: SW-620
MDA-MB-435 = tested on: MDA-MB-435
ACHN = tested on: ACHN
OVCAR-3 = tested on: OVCAR-3
CAKI-1 = tested on: CAKI-1
U-251 = tested on: U-251
HCT-15 = tested on: HCT-15
COLO 205 = tested on: COLO 205
SK-OV-3 = tested on: SK-OV-3
SK-MEL-28 = tested on: SK-MEL-28
CCRF-CEM = tested on: CCRF-CEM
DU-145 = tested on: DU-145
MDA-N = tested on: MDA-N
SN12C = tested on: SN12C
RPMI-8226 = tested on: RPMI-8226
HCT-116 = tested on: HCT-116
K562 = tested on: K562
KM12 = tested on: KM12
UO-31 = tested on: UO-31
786-0 = tested on: 786-0
HOP-92 = tested on: HOP-92
DMS-273 = tested on: DMS-273
KM-20L2 = tested on: KM-20L2
IGROV-1 = tested on: IGROV-1
SNB-78 = tested on: SNB-78
EKVX = tested on: EKVX
HOP-62 = tested on: HOP-62
NCI/ADR-RES = tested on: NCI/ADR-RES
SNB-19 = tested on: SNB-19
Malme-3M = tested on: Malme-3M
SNB-75 = tested on: SNB-75
UACC-257 = tested on: UACC-257
A498 = tested on: A498
LOX IMVI = tested on: LOX IMVI
SF-539 = tested on: SF-539
RXF 393 = tested on: RXF 393
T47D = tested on: T47D
A549 = tested on: A549
NCI-H460 = tested on: NCI-H460
MOLT-4 = tested on: MOLT-4
MCF7 = tested on: MCF7
M19-MEL = tested on: M19-MEL
NCI-H226 = tested on: NCI-H226

Structure (SMILES): CCN(CC)CCCC(C)Nc1ccnc2cc(Cl)ccc12 (stereo unspecified) [CHLOROQUINE PHOSPHATE]
- GI50 (OVCAR-4): 51.3 µM (inactive)
- GI50 (DMS-114): 24.3 µM (inactive)
- GI50 (OVCAR-5): 25.1 µM (inactive)
- GI50 (HCC 2998): 19.5 µM (inactive)
- GI50 (PC-3): 19 µM (inactive)
- GI50 (DLD-1): > 100 µM (inactive)
- GI50 (SK-MEL-5): 26.2 µM (inactive)
- GI50 (HT-29): 17.5 µM (inactive)
- GI50 (NCI-H23): > 84.7 µM (inactive)
- GI50 (M14): 15 µM (inactive)
- GI50 (TK-10): 37.3 µM (inactive)
- GI50 (SR): 13.6 µM (inactive)
- GI50 (OVCAR-8): 33.4 µM (inactive)
- GI50 (SK-MEL-2): 10 µM (inactive)
- GI50 (UACC-62): 28.8 µM (inactive)
- GI50 (LXFL 529): 57.3 µM (inactive)
- GI50 (SF-268): 60.7 µM (inactive)
- GI50 (MDA-MB-231): 15.8 µM (inactive)
- GI50 (HL-60): 13.3 µM (inactive)
- GI50 (XF498): 17.9 µM (inactive)
- GI50 (NCI-H522): 25.8 µM (inactive)
- GI50 (SF-295): 21 µM (inactive)
- GI50 (SW-620): > 57.4 µM (inactive)
- GI50 (MDA-MB-435): 16.4 µM (inactive)
- GI50 (ACHN): > 85.1 µM (inactive)
- GI50 (OVCAR-3): 97.1 µM (inactive)
- GI50 (CAKI-1): 20.8 µM (inactive)
- GI50 (U-251): 21.2 µM (inactive)
- GI50 (HCT-15): 24.9 µM
- GI50 (COLO 205): 9.38 µM (inactive)
- GI50 (SK-OV-3): > 76.7 µM (inactive)
- GI50 (SK-MEL-28): 20.6 µM (inactive)
- GI50 (CCRF-CEM): 20.8 µM (inactive)
- GI50 (DU-145): 7.94 µM (inactive)
- GI50 (MDA-N): 16.6 µM (inactive)
- GI50 (SN12C): 34.9 µM (inactive)
- GI50 (RPMI-8226): 19.5 µM (inactive)
- GI50 (HCT-116): 12 µM (inactive)
- GI50 (K562): 12.4 µM (inactive)
- GI50 (KM12): 31.8 µM (inactive)
- GI50 (UO-31): 14.9 µM (inactive)
- GI50 (786-0): 11.7 µM (inactive)
- GI50 (HOP-92): 15.7 µM (inactive)
- GI50 (DMS-273): 28.1 µM (inactive)
- GI50 (KM-20L2): 14.6 µM (inactive)
- GI50 (IGROV-1): 24.5 µM (inactive)
- GI50 (SNB-78): 29.9 µM (inactive)
- GI50 (EKVX): > 57 µM (inactive)
- GI50 (HOP-62): 34.4 µM (inactive)
- GI50 (NCI/ADR-RES): 42.1 µM (inactive)
- GI50 (SNB-19): > 76.4 µM (inactive)
- GI50 (Malme-3M): 20.9 µM (inactive)
- GI50 (SNB-75): > 60.5 µM (inactive)
- GI50 (UACC-257): 23.1 µM (inactive)
- GI50 (A498): 24.3 µM (inactive)
- GI50 (LOX IMVI): 20.6 µM (inactive)
- GI50 (SF-539): 16.6 µM (inactive)
- GI50 (RXF 393): 2.4 µM (inactive)
- GI50 (T47D): 28.1 µM (inactive)
- GI50 (A549): 39.5 µM (inactive)
- GI50 (NCI-H460): 18 µM (inactive)
- GI50 (MOLT-4): 15.2 µM (inactive)
- GI50 (MCF7): 19.1 µM (inactive)

Structure (SMILES): O=C(CCN1CCCC1)CC(c1ccccc1)c1c(O)c2ccccc2oc1=O (stereo unspecified)
- GI50 (OVCAR-4): > 100 µM (inactive)
- GI50 (DMS-114): > 100 µM (inactive)
- GI50 (HCC 2998): > 100 µM (inactive)
- GI50 (DLD-1): > 100 µM (inactive)
- GI50 (SK-MEL-5): > 100 µM (inactive)
- GI50 (HT-29): > 100 µM (inactive)
- GI50 (NCI-H23): > 100 µM (inactive)
- GI50 (M14): > 100 µM (inactive)
- GI50 (TK-10): > 100 µM (inactive)
- GI50 (SR): > 100 µM (inactive)
- GI50 (OVCAR-8): > 100 µM (inactive)
- GI50 (SK-MEL-2): > 100 µM (inactive)
- GI50 (UACC-62): > 100 µM (inactive)
- GI50 (LXFL 529): > 100 µM (inactive)
- GI50 (SF-268): > 100 µM (inactive)
- GI50 (HL-60): > 100 µM (inactive)
- GI50 (XF498): > 100 µM (inactive)
- GI50 (NCI-H522): > 100 µM (inactive)
- GI50 (SF-295): > 100 µM (inactive)
- GI50 (SW-620): > 100 µM (inactive)
- GI50 (ACHN): > 100 µM (inactive)
- GI50 (OVCAR-3): > 100 µM (inactive)
- GI50 (M19-MEL): > 100 µM (inactive)
- GI50 (U-251): > 100 µM (inactive)
- GI50 (HCT-15): > 100 µM
- GI50 (COLO 205): > 100 µM (inactive)
- GI50 (SK-OV-3): > 100 µM (inactive)
- GI50 (SK-MEL-28): > 100 µM (inactive)
- GI50 (CCRF-CEM): > 100 µM (inactive)
- GI50 (SN12C): > 100 µM (inactive)
- GI50 (RPMI-8226): > 100 µM (inactive)
- GI50 (HCT-116): > 100 µM (inactive)
- GI50 (K562): > 100 µM (inactive)
- GI50 (KM12): > 100 µM (inactive)
- GI50 (UO-31): > 100 µM (inactive)
- GI50 (786-0): > 100 µM (inactive)
- GI50 (HOP-92): 20.1 µM (inactive)
- GI50 (DMS-273): > 100 µM (inactive)
- GI50 (KM-20L2): > 100 µM (inactive)
- GI50 (IGROV-1): > 100 µM (inactive)
- GI50 (SNB-78): > 100 µM (inactive)
- GI50 (EKVX): > 100 µM (inactive)
- GI50 (HOP-62): > 100 µM (inactive)
- GI50 (SNB-19): > 100 µM (inactive)
- GI50 (Malme-3M): > 100 µM (inactive)
- GI50 (NCI-H226): > 100 µM (inactive)
- GI50 (SNB-75): > 100 µM (inactive)
- GI50 (UACC-257): > 100 µM (inactive)
- GI50 (LOX IMVI): > 100 µM (inactive)
- GI50 (RXF 393): > 100 µM (inactive)
- GI50 (A549): > 100 µM (inactive)
- GI50 (NCI-H460): > 100 µM (inactive)
- GI50 (MOLT-4): > 100 µM (inactive)
